Read-outs that look alike come from different tables or passages of the source.
Legend:
washed platelets = assay: Platelet aggregation inhibiting activity (washed platelets, collagen, nephelometric analysis); format: cell-based, normal volunteer; conditions: Homo sapiens, read-out: Platelet aggregation inhibiting activity (IC50)
Experimental: Blood, which had been collected from a normal volunteer and had immediately been mixed with 1/10 volume of a 0.38% agueous solution of sodium citrate, was converted into a platelet-rich plasma (PRP) by centrifugation (700 x G, 10 minutes). To the PRP, 1/6 volume of the ACD solution (2.2% sodium citrate, 0.8% citric acid, 2.2% glucose - prepared before use) was added, followed by centrifugation (1,500 x G, 10 minutes). A platelet pellet so obtained was suspended in a modified HEPES Tyrode solution (135 mM sodium chloride, 2.7 mM potassium chloride, 1 mM magnesium chloride, 0.1 mg/mℓ glucose, 20 mM HEPE; pH 7.4). After 1/6 volume of the ACD solution was added to the suspension, further centrifugation was conducted (1,500 x G, 5 minutes). A platelet pellet so obtained was suspended in the modified HEPES Tyrode solution, whereby a washed platelet suspension containing about 300,000 platelets/µℓ therein was obtained.
Into 270-µℓ aliquots of the washed platelet suspension obtained above, 3-µℓ aliquots of solutions of a given test compound at varied concentrations in an appropriate solvent were added, respectively. The resulting mixtures were each preheated at 37°C for 2 minutes and, subsequent to the addition of 30 µℓ of a 20 µg/mℓ solution of collagen, an absorbance was measured by a 4-channel aggregometer ("HEMA Tracer 601"; manufactured by Nicoh Bioscience Co., Ltd.).
As a control, an absorption at the time of maximum aggregation by collagen in the presence of a solvent making use of a given test compound was assumed to be 100 whereas an absorbance before the addition of collagen was assumed to be 0. An inhibition rate (%) was then calculated from an absorbance at the time of maximum aggregation by collagen when the given test compound was added, and a concentration (µM) of the given test compound which achieves 50% inhibition was expressed as "IC50".

[1] = system: superior mesenteric artery; assay: Vascular smooth muscle relaxing activity (potassium chloride-contracted helical artery preparation); set-up: species or system rabbit; conditions: read-out: Vascular smooth muscle relaxing activity (ED50)
Experimental: Each rabbit was sacrificed under exsanguination, and an incision was then made in the flank thereof. […] After this preparation cut was caused to contract with potassium chloride to maintain it under predetermined tension, a given test compound was added cumulatively.

[2] = system: platelet-rich plasma (PRP); assay: Platelet aggregation inhibition test (ex vivo PRP after oral administration); format: in vivo; conditions: guinea pigs, blood one hour after administration; for Platelet aggregation inhibition rate (%) Collagen: collagen (2.5 µg/mg); for Platelet aggregation inhibition rate (%) Arachidonic acid: arachidonic acid (0.1 mM)
Experimental: A test was conducted using male S1c:Hartley guinea pigs, which were 5 to 7 weeks old and had body weights of from 274 to 554 g, in groups each of which consisted of five guinea pigs. […] One hour after the administration, blood was collected from the abdominal aorta, and a platelet-rich plasma (PRP) was prepared. […]

[3] = Acute toxicity (single intravenous shot, approximate LD50); conditions: mouse, in vivo, male S1C:ICR mice, single shot into caudal vein
Experimental: A test was conducted using male S1C:ICR mice, which were 6 to 7 weeks old and had body weights of from 18 to 36 g, in groups each which consisted of 3 mice.
Predetermined amounts of compounds according to the present invention and a comparative drug (vinpocetine phosphate), each of which had been dissolved in a 5% aqueous solution of glucose, were administered as single shots into the caudal veins of the mice, and the mice were then observed to determine whether they remained under normal conditions or died. Upon expiration of an observation period, their approximate LD50 values were calculated by the provit method.

[4] = system: Vertebral blood flow and femoral blood flow; assay: Blood flow enhancement test (anesthetized beagles, electromagnetic flow probe); format: in vivo; conditions: femoral vein administration
Experimental: A test was conducted using male beagles, which were 9 to 13 months old, had body weights of from 9 to 10 kg and had been anesthetized with pentobarbital sodium (25-30 mg/kg), in groups each of which consisted of four beagles. Into one of the femoral veins of each of the beagles, a given test compound in a form dissolved in a 5% agueous solution of glucose was administered at a dose of from 0.1 to 1.0 mg/kg. Vertebral blood flow and femoral blood flow were measured using an electromagnetic flow probe connected to a magnetic flow meter.

[5] = washed platelets of a normal volunteer, aggregation by collagen
[6] = Oryctolagus cuniculus, rabbit superior mesenteric artery contracted with potassium chloride, concentration for 50% relaxation

Row | SMILES | IC50 (washed platelets; [5]) | EC50 [1, 6] | further results
1 | CCOC(=O)C1=CC2(CC)CCCN3CCc4c(n1c1cc(NS(=O)(=O)c5ccc(Br)cc5)ccc41)C32 (stereo not shown) [Compound 4, Ethyl 11-(4-bromophenyl)sulfonylamino-apovincaminate] | 0.76 µM | 1 µM | 
2 | CCOC(=O)C1=CC2(CC)CCCN3CCc4c(n1c1cc(NS(=O)(=O)c5cccc6ccccc56)ccc41)C32 (stereo not shown) [Compound 10, Ethyl 11-(1-naphthalene)sulfonylamino-apovincaminate] | 9.2 µM | 2 µM | 
3 | CCOC(=O)C1=CC2(CC)CCCN3CCc4c(n1c1cc(NS(=O)(=O)c5cc(Cl)ccc5Cl)ccc41)C32 (stereo not shown) [Compound 9, Ethyl 11-(2,5-dichlorophenyl)sulfonylamino-apovincaminate] | 0.88 µM | 0.9 µM | 
4 | CCOC(=O)C1=C[C@]2(CC)CCCN3CCc4c(n1c1cc(NS(=O)(=O)c5c(C(C)C)cc(C(C)C)cc5C(C)C)ccc41)[C@@H]32 [Compound 20, Ethyl 11-(2,4,6-triisopropylphenyl)sulfonylamino-apovincaminate] |  |  | EC50 ([1]; rabbit superior mesenteric artery contracted with potassium chloride, concentration for 50% relaxation): 0.93 µM
5 | O=C1CCc2cc(OCCCCc3nnnn3C3CCCCC3)ccc2N1 [Cilostazol, reference compound] |  |  | Platelet aggregation inhibition rate (%) Collagen ([2]; oral 100 mg/kg): 12.4%; Platelet aggregation inhibition rate (%) Arachidonic acid ([2]; oral 300 mg/kg): 22.1%; Platelet aggregation inhibition rate (%) Collagen ([2]; oral 300 mg/kg): 74.7%
6 | CCOC(=O)C1=CC2(CC)CCCN3CCc4c(n1c1cc(NS(=O)(=O)Cc5ccccc5)ccc41)C32 (stereo not shown) [Compound 13, Ethyl 11-benzylsulfonylamino-apovincaminate] | 4.4 µM | 0.3 µM | 
7 | CCCOC(=O)C1=CC2(CC)CCCN3CCc4c(n1c1cc(NS(=O)(=O)c5ccc(Cl)cc5)ccc41)C32 (stereo not shown) [Compound 6, Propyl 11-(4-chlorophenyl)sulfonylamino-apovincaminate] | 0.96 µM | 1.3 µM | 
8 | CCOC(=O)C1=CC2(CC)CCCN3CCc4c(n1c1cc(NS(=O)(=O)c5cc(C)ccc5C)ccc41)C32 (stereo not shown) [Compound 17, Ethyl 11-(2,5-dimethylphenyl)sulfonyl-amino-apovincaminate] | 0.72 µM | 0.71 µM | 
9 | CCC12C=C(C(=O)OC)n3c4c(c5ccc(NS(=O)(=O)c6ccc(Cl)cc6)cc53)CCN(CCC1)C42 (stereo not shown) [Compound 3, Methyl 11-(4-chlorophenyl)sulfonylamino-apovincaminate] | 0.25 µM | 1.7 µM | 
10 | CCOC(=O)C1=CC2(CC)CCCN3CCc4c(n1c1cc(NS(=O)(=O)c5ccc(I)cc5)ccc41)C32 (stereo not shown) [Compound 8, Ethyl 11-(4-iodophenyl)sulfonylamino-apovincaminate] | 0.81 µM | 1.3 µM | 
11 | CCOC(=O)C1=CC2(CC)CCCN3CCc4c(n1c1cc(NS(=O)(=O)c5cccs5)ccc41)C32 (stereo not shown) [Compound 18, Ethyl 11-(2-thiophene)sulfonylamino-apovincaminate] | 0.4 µM | 0.63 µM | 
12 | CCOC(=O)C1=CC2(CC)CCCN3CCc4c(n1c1cc(NS(=O)(=O)c5ccc(NC(C)=O)cc5)ccc41)C32 (stereo not shown) [Compound 14, Ethyl 11-(4-acetylaminophenyl)sulfonyl-amino-apovincaminate] | 0.47 µM | 1.2 µM | 
13 | CCC12C=C(C(=O)OC)n3c4c(c5ccc(NS(=O)(=O)c6ccccc6)cc53)CCN(CCC1)C42 (stereo not shown) [Compound 2, Methyl 11-phenylsulfonylamino-apovincaminate] | 0.38 µM | 2.1 µM | 
14 | CCOC(=O)C1=CC2(CC)CCCN3CCc4c(n1c1cc(NS(=O)(=O)c5ccc(OC)cc5)ccc41)C32 (stereo not shown) [Compound 16, Ethyl 11-(4-methoxyphenyl) sulfonylamino-apovincaminate] | 1 µM | 0.7 µM | 
15 | CCOC(=O)C1=CC2(CC)CCCN3CCc4c(n1c1cc(NS(=O)(=O)c5ccc6ccccc6c5)ccc41)C32 (stereo not shown) [Compound 22, Ethyl 11-(2-naphthalene)sulfonylamino-apovincaminate] | 0.28 µM | 0.86 µM | 
16 | CCC12C=C(C(=O)OC(C)C)n3c4c(c5ccc(NS(=O)(=O)c6ccc(Cl)cc6)cc53)CCN(CCC1)C42 (stereo not shown) [Compound 5, Isopropyl 11-(4-chlorophenyl)sulfonylamino-apovincaminate] | 0.94 µM | 1.3 µM | 
17 | CCOC(=O)C1=CC2(CC)CCCN3CCc4c(n1c1cc(NS(=O)(=O)c5cccc([N+](=O)[O-])c5)ccc41)C32 (stereo not shown) [Compound 24, Ethyl 11-(3-nitrophenyl)sulfonylamno-apovincaminate] |  |  | IC50 (washed platelets): 0.9 µM; EC50 ([1]; Oryctolagus cuniculus): 0.2 µM
18 | CCOC(=O)C1=CC2(CC)CCCN3CCc4c(n1c1cc(NS(=O)(=O)c5ccccc5C(=O)OC)ccc41)C32 (stereo not shown) [Compound 19, Ethyl 11-(2-methoxycarbonylphenyl)sulfonylamino-apovincaminate] | 1.8 µM | 0.2 µM | 
19 | CCOC(=O)C1=CC2(CC)CCCN3CCc4c(n1c1ccccc41)C32 (stereo not shown) [Vinpocetine phosphate, vinpocetine phosphate, reference compound] |  |  | LD50 [3]: 60 mg/kg
20 | CCOC(=O)C1=CC2(CC)CCCN3CCc4c(n1c1cc(NS(=O)(=O)c5ccc(F)cc5)ccc41)C32 (stereo not shown) [Compound 7, Ethyl 11-(4-fluorophenyl)sulfonylamino-apovincaminate] | 0.91 µM | 2 µM | 
21 | CCOC(=O)C1=CC2(CC)CCCN3CCc4c(n1c1cc(NS(=O)(=O)c5ccc(OC)cc5[N+](=O)[O-])ccc41)C32 (stereo not shown) [Compound 21, Ethyl 11-(4-methoxy-2-nitrophenyl)sulfonylamino-apovincaminate] | 0.4 µM | 2.1 µM | 
22 | CCOC(=O)C1=CC2(CC)CCCN3CCc4c(n1c1cc(NS(=O)(=O)c5c(F)c(F)c(F)c(F)c5F)ccc41)C32 (stereo not shown) [Compound 23, Ethyl 11-(2,3,4,5,6-pentafluorophenyl)sulfonylamino-apovincaminate] | 0.58 µM | 1.2 µM | 
23 | CCOC(=O)C1=CC2(CC)CCCN3CCc4c(n1c1cc(NS(=O)(=O)c5cccc6cccnc56)ccc41)C32 (stereo not shown) [Compound 15, Ethyl 11-(8-quinoline)sulfonylamino-apovincaminate] | 4.1 µM | 0.5 µM | 
24 | CCOC(=O)C1=CC2(CC)CCCN3CCc4c(n1c1cc(NS(=O)(=O)c5c(C)cc(C)cc5C)ccc41)C32 (stereo not shown) [Compound 12, Ethyl 11-mesytylenesulfonylamino-apovincaminate] |  |  | LD50 [3]: 50 mg/kg; Platelet aggregation inhibition rate (%) Collagen ([2]; oral 100 mg/kg): 13.0%
25 | CCOC(=O)C1=CC2(CC)CCCN3CCc4c(n1c1cc(NS(=O)(=O)c5ccccc5)ccc41)C32 (stereo not shown) [Compound 1, ethyl 11-phenylsulfonylamino-apovin-caminate] |  |  | LD50 [3]: 85 mg/kg; Platelet aggregation inhibition rate (%) Arachidonic acid ([2]; oral 100 mg/kg): 45.2%; Platelet aggregation inhibition rate (%) Collagen ([2]; oral 100 mg/kg): 85.4%
26 | CCOC(=O)C1=CC2(CC)CCCN3CCc4c(n1c1cc(NS(=O)(=O)c5ccc(C)cc5)ccc41)C32 (stereo not shown) [Compound 11, Ethyl 11-(4-toluene)sulfonylamino-apovincaminate] |  |  | Bloodflow increment (%) Femoral artery ([4]; dose 0.1 mg/kg): 2.9%; Bloodflow increment (%) Vertebral artery ([4]; dose 0.1 mg/kg): 5.4%; Bloodflow increment (%) Femoral artery ([4]; dose 0.3 mg/kg): 5.1%; Bloodflow increment (%) Vertebral artery ([4]; dose 0.3 mg/kg): 11.8%; Bloodflow increment (%) Femoral artery ([4]; dose 1.0 mg/kg): 4.5%; Bloodflow increment (%) Vertebral artery ([4]; dose 1.0 mg/kg): 32.5%; LD50 [3]: 125 mg/kg; IC50 (washed platelets): 0.05 µM; Platelet aggregation inhibition rate (%) Arachidonic acid ([2]; oral 100 mg/kg): 33.9%; Platelet aggregation inhibition rate (%) Collagen ([2]; oral 100 mg/kg): 49.1%; EC50 ([1]; Oryctolagus cuniculus): 1 µM

— patent EP0864571A1, “APOVINCAMINIC ACID DERIVATIVE AND MEDICINE CONTAINING THE SAME” (Hidaka, Hiroyoshi, priority 1995, dated 1997)
